Source: patent US12428406B2 (PMV Pharmaceuticals, Inc., priority 2019, dated 2025)

biological target: T1, p53 Y220C (Homo sapiens, UniProt P04637, Y220C); assay: In vitro DNA binding activity assay (HTRF / TR-FRET): stabilization of p53 Y220C and increase of its DNA binding activity; format: biochemical; conditions: recombinant His-tagged p53 Y220C DNA binding domain (aa 94-312), biotin-labeled consensus DNA, incubated at 27° C. or 29° C. for 60 min
T1 construct: The recombinant protein was a truncation mutant containing only amino acids 94-312 of p53; made in house; host or cells: E. coli
T1 sequence (P04637 94-312, change not shown): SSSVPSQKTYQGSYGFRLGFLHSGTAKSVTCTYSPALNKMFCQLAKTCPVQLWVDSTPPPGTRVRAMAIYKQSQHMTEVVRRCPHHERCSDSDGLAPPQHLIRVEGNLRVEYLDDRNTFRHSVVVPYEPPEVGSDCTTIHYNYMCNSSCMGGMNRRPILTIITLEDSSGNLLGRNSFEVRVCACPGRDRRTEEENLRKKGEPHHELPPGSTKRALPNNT
In short: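 Compound effect on DNA binding of recombinant His-p53 Y220C (E. coli) to biotin-labeled consensus DNA, expressed as SC150, the concentration giving 50% increase versus untreated. Serial 3-fold DMSO dilutions of 4.5 mM stocks; room-temperature steps of 15 then 20 min.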

SC150 (concentration of the compound required to increase the DNA binding activity by 50%), + (+ = 0 μM ≤ SC150 < 0.05 μM):
CNC(=O)c1cc(OC)c(NCC#Cc2cc3c(N[C@@H]4CCN(C)C[C@@H]4F)cccc3n2CC(F)(F)F)cn1 [Compound 1065A, 5-{[3-(4-{[(3S,4R)-3-fluoro-1-methylpiperidin-4-yl]amino}-1-(2,2,2-trifluoroethyl)-1H-indol-2-yl)prop-2-yn-1-yl]amino}-4-methoxy-N-methylpyridine-2-carboxamide]
CN1CC[C@@H](Nc2cccc3c2cc(C#CCNC(=O)c2cnn(C(C)(C)C)c2)n3CC(F)(F)F)[C@@H](F)C1 [Compound 1066A, 1-tert-butyl-N-[3-(4-{[(3S,4R)-3-fluoro-1-methylpiperidin-4-yl]amino}-1-(2,2,2-trifluoroethyl)-1H-indol-2-yl)prop-2-yn-1-yl]-1H-pyrazole-4-carboxamide]
COc1cc(S(C)(=O)=O)ccc1NCC#Cc1cc2c(N[C@@H]3CCN(C(C)(C)C)C[C@@H]3F)cccc2n1CC(F)(F)F [Compound 1068A, N-((3S,4R)-1-(tert-butyl)-3-fluoropiperidin-4-yl)-2-(3-((2-methoxy-4-(methylsulfonyl)phenyl)amino)prop-1-yn-1-yl)-1-(2,2,2-trifluoroethyl)-1H-indol-4-amine]
COc1cc(S(C)(=O)=O)ccc1NCC#Cc1cc2c(N[C@H]3CCN(C(C)(C)C)C[C@H]3F)cccc2n1CC(F)(F)F [Compound 1069A, N-[(3R,4S)-1-tert-butyl-3-fluoropiperidin-4-yl]-2-{3-[(4-methanesulfonyl-2-methoxyphenyl)amino]prop-1-yn-1-yl}-1-(2,2,2-trifluoroethyl)-1H-indol-4-amine]
COc1cc(C(=O)O)ccc1NCC#Cc1cc2c(N[C@@H]3CCN(C(C)(C)C)C[C@@H]3F)cccc2n1CC(F)(F)F [Compound 1070A, 4-{[3-(4-{[(3S,4R)-1-tert-butyl-3-fluoropiperidin-4-yl]amino}-1-(2,2,2-trifluoroethyl)-1H-indol-2-yl)prop-2-yn-1-yl]amino}-3-methoxybenzoic acid]
COc1cc(C(=O)O)ccc1NCC#Cc1cc2c(N[C@H]3CCN(C(C)(C)C)C[C@H]3F)cccc2n1CC(F)(F)F [Compound 1071A, 4-{[3-(4-{[(3R,4S)-1-tert-butyl-3-fluoropiperidin-4-yl]amino}-1-(2,2,2-trifluoroethyl)-1H-indol-2-yl)prop-2-yn-1-yl]amino}-3-methoxybenzoic acid]
CNC(=O)c1ccc(NCC#Cc2cc3c(N[C@@H]4CCN(C(C)(C)C)C[C@@H]4F)cccc3n2CC(F)(F)F)c(OC)c1 [Compound 1072A, 4-{[3-(4-{[(3S,4R)-1-tert-butyl-3-fluoropiperidin-4-yl]amino}-1-(2,2,2-trifluoroethyl)-1H-indol-2-yl)prop-2-yn-1-yl]amino}-3-methoxy-N-methylbenzamide]
CNC(=O)c1ccc(NCC#Cc2cc3c(N[C@H]4CCN(C(C)(C)C)C[C@H]4F)cccc3n2CC(F)(F)F)c(OC)c1 [Compound 1073A, 4-{[3-(4-{[(3R,4S)-1-tert-butyl-3-fluoropiperidin-4-yl]amino}-1-(2,2,2-trifluoroethyl)-1H-indol-2-yl)prop-2-yn-1-yl]amino}-3-methoxy-N-methylbenzamide]
CCN1CC[C@@H](Nc2cccc3c2cc(C#CCNc2ccc(C(=O)NC)cc2OC)n3CC(F)(F)F)[C@@H](F)C1 [Compound 1074A, 4-{[3-(4-{[(3S,4R)-1-ethyl-3-fluoropiperidin-4-yl]amino}-1-(2,2,2-trifluoroethyl)-1H-indol-2-yl)prop-2-yn-1-yl]amino}-3-methoxy-N-methylbenzamide]
CCN1CC[C@H](Nc2cccc3c2cc(C#CCNc2ccc(C(=O)NC)cc2OC)n3CC(F)(F)F)[C@H](F)C1 [Compound 1075A, 4-{[3-(4-{[(3R,4S)-1-ethyl-3-fluoropiperidin-4-yl]amino}-1-(2,2,2-trifluoroethyl)-1H-indol-2-yl)prop-2-yn-1-yl]amino}-3-methoxy-N-methvlbenzamide]
